Data set [1] relates to Mus musculus. Description: In vivo agonist activity at EP4 in po dosed C57BL/6J mouse assessed as increase in renin level in plasma at 10 mg/kg, po measured after 2 hrs. The class given is functional, organism-based.
A short description of data set [2]: In vivo agonist activity at EP4 in po dosed C57BL/6J mouse assessed as increase in Ccl5 expression in colon administered for 3 days by qPCR analysis. Particulars: 72 h, dose 1-5 mg/kg, time 3 day. The data set is classed as organism-based.
The nature of data set [3]: Cmax in BALB/c mouse plasma at 1 mg/kg, po or iv measured at 24 hrs. Further details: dose 1 mg/kg, time 24 hrs, route po. The data set is classed as ADME, organism-based.
The nature of data set [4]: Drug uptake in BALB/c mouse Colon at 1 mg/kg, po measured at 24 hrs. Conditions: in vivo. The class given is ADME, organism-based.
Data set [5] can be described thus: Drug uptake in BALB/c mouse Feces at 1 mg/kg, po measured at 24 hrs. The class given is ADME, organism-based. Conditions: in vivo.
The nature of data set [6]: Oral bioavailability in BALB/c mouse at 1 mg/kg measured at 24 hrs. The class given is ADME, organism-based. Particulars: in vivo.
A short description of data set [7]: Drug uptake in BALB/c mouse Colon at 1 mg/kg, po. Conditions: in vivo. The data set is classed as ADME, organism-based.
Data set [8] is described as follows: Drug uptake in BALB/c mouse Feces at 1 mg/kg, po. The data set is classed as ADME, organism-based. Particulars: in vivo.
A short description of data set [9]: Drug uptake in BALB/c mouse plasma at 1 mg/kg, po or iv. The class given is ADME, organism-based. Particulars: in vivo.

Active and inactive are the calls of the source. The rule behind the calls is not given here.

As to `O=C(CCCCCCN1C(=O)CC[C@@H]1/C=C/[C@@H](O)Cc1ccccc1)NNC(=O)C(=O)O`, the outcome in data set [1] was inactive. Besides, the Activity entry in [2] is reported as “Dose-Dependent Effect”.
By Cmax is commonly meant the peak of the concentration-time curve. The bioavailability is the share of a dose that reaches the circulation, judged against a reference dose that is usually intravenous. A low value points to poor availability. The compound `O=C(O)CCCCCCN1C(=O)CC[C@@H]1/C=C/[C@@H](O)Cc1ccccc1` registered a Cmax in [3] of about 50 nM. Also, the Drug uptake entry in data set [4], in data set [5], in [7] and in data set [8] was “Active” each time. The bioavailability in data set [6] was determined as 3%.
`O=C(CCCCCCN1C(=O)CC[C@@H]1/C=C/[C@@H](O)Cc1ccccc1)NS(=O)(=O)c1ccccc1`: the Drug uptake result in [9] is “Not Active”; in [4], “Active”; in data set [5], “Active”.
